Data published in patent US20170049843A1, “Hepatocyte Growth Factor Mimics as Therapeutic Agents” (WASHINGTON STATE UNIVERSITY, priority 2011, published 2017).
Where a name gives a salt, the structure may show the parent alone. Where a SMILES comes first, the peptide text is derived from it. Where no end group is shown, it is not given here. [ ]: non-standard residue; d: D form. dNle = CCCC[C@@H](N)C(=O)O; Ahx = NCCCCCC(=O)O; GABA = NCCCC(=O)O

Assays:
HGF [1] = target: T1, HGF (Homo sapiens, UniProt P14210); assay: HGF binding, competition with 3H-Hinge
T1 construct: purchased R&D Systems (Minneapolis, Minn.)
Method: The binding of 6-AH analogs to HGF was assessed by competition using a soluble binding assay. 250 μl of PBS containing human HGF (1.25 ng) were incubated with ^3H-Hinge, the central dimerization domain of HGF, in the presence of varying concentrations of 6-AH analogs between 10^−13 M to 10^−7M (half-log dilutions) for 40 min at 37° C. The incubates were then spun through Bio-Gel P6 spin columns (400 μl packed volume) for 1 min to separate free and bound ^3H-Hinge and the eluent was collected. Five milliliters of scintillation fluid was added to the eluent, which contained the HGF bound ^3H-Hinge, and was then counted using scintillation counter. Total disintegrations per minute of bound ^3H-Hinge were calculated based on machine counting efficiency. The Ki values for the binding of the peptides were determined using the Prism 5. Competition binding curves were performed in triplicate.

HGF [2] = target: T1, HGF; assay: HGF dimerization; format: biochemical; conditions: analog at 10^−10M, 30 minute incubation with heparin
Method: HGF dimerization was assessed using PAGE followed by silver staining (Kawas et al., 2011). Human HGF at a concentration of 0.08 ng/μl with or without 6-AH analogs was incubated with heparin at a final concentration of 5 μg/ml. Loading buffer was then added to each sample and the mixture separated by native PAGE using gradient Criterion XT precast gels (4-12% Bis-Tris; Biorad Laboratories, Hercules, Calif.). Next the gel was silver stained for the detection of the HGF monomers and dimers. Bands were quantitated from digital images using a UVP phosphoimager (Upland, Calif.).

Met = assay: Inhibition of HGF-dependent Met phosphorylation in HEK293 cells; format: cell-based, human; conditions: 10 min
Method: HEK293 cells were seeded in 6 well tissue culture plates and grown to 95% confluency in DMEM containing 10% FBS. The cells were serum deprived for 24 h prior to the treatment to reduce the basal levels of phospho-Met. Following serum starvation, cocktails comprised of vehicle and HGF with/without 6-AH analogs were prepared and pre-incubated for 30 min at room temperature. The cocktail was then added to the cells for 10 min to stimulate the Met receptor and downstream proteins. Cells were harvested using RIPA lysis buffer (Millipore; Billerica, Mass.) fortified with phosphatase inhibitor cocktails 1 and 2 (Sigma-Aldrich; St. Louis, Mo.). The lysate was clarified by centrifugation at 15,000 n×g for 15 min, protein concentrations were determined using the BCA total protein assay (Pierce), and then appropriate volumes of the lysates were diluted with 2× reducing Laemmli buffer and heated for ten min at 95° C. Samples containing identical amounts of protein were resolved using SDS-PAGE (Criterion, BioRad Laboratories), transferred to nitrocellulose, and blocked in Tris-buffered saline (TBS) containing 5% milk for 1 h at room temperature. The phospho-Met antibody were added to the blocking buffer at a final concentration of 1:1000 and incubated at 4° C. overnight with gentle agitation. The membranes were then washed several times with water and TBS ([…]), a 1:5000 dilution of horseradish-peroxidase conjugated goat anti-rabbit antiserum was added, and the membranes further incubated for 1 h at room temperature. Proteins were visualized using the Supersignal West Pico Chemiluminescent Substrate system (Pierce, Fenton, Mo.) and molecular weights determined by comparison to protein ladders (BenchMark, Invitrogen, and Kaleidoscope, BioRad). Film images were digitized and analyzed using a UVP phosphoimager.

MDCK cells [3] = assay: Inhibition of HGF-dependent scattering in MDCK cells; format: cell-based, canine; conditions: for inhibition of HGF-dependent scattering in MDCK cells: HGF 20 ng/ml, 48 h
Method: (§1) MDCK cells were grown to 100% confluency on the coverslips in six-well plates and washed twice with PBS. The confluent coverslips were then aseptically transferred to new six well plates containing 900 μl serum free DMEM. Norleual, Hinge peptide, and/or HGF (20 ng/ml) were added to appropriate wells. Control wells received PBS vehicle. Plates were incubated at 37° C. with 5% CO2 for 48 hours. Media was removed and cells were fixed with methanol. Cells were stained with Diff-Quik Wright-Giemsa (Dade-Behring, Newark, Del.) and digital images were taken. Coverslips were removed with forceps and more digital images were captured. Pixel quantification of images was achieved using Image J and statistics were performed using Prism 5 and InStat v.3.05.
as §1, with “h.” for “hours.”, “v.3.05 (GraphPad; San Diego, Calif.).” for “v.3.05.”

MDCK cells [4] = assay: HGF-dependent MDCK cell proliferation (MTT); format: cell-based, canine; conditions: 10^−10 M, 4 days, HGF 10 ng/ml
Method: 5000 MDCK cells were seeded into the wells of a 96 well plates in 10% FBS DMEM. To induce cellular quiescence, the cells were serum deprived for 24 h prior to initiating the treatments. Following serum starvation, 10 ng/ml HGF alone and with various concentrations of 6-AH analogs or PBS vehicle were added to the media. The cells were allowed to grow under these conditions for 4 days with a daily addition of 6-AH analogs. On the fourth day, 1 mg/ml of 1-(4, 5-Dimethylthiazol-2-yl) 3, 5-diphenylformazan reagent (MTT, Sigma-Aldrich) prepared in PBS was added to the cells and incubated for 4 h. Dimethyl sulfoxide diluted in a 0.01M glycine buffer was added to solubilize the cell membranes and the absorbance of reduced MTT in the buffer was quantitated at 590 nm using a plate reader (Biotek Synergy 2, Winooski, Vt.). HGF-dependent proliferation was determined by subtracting the basal proliferation (in the absence of HGF) from total proliferation rates in groups containing HGF.

Blood stability studies = format: in vitro ADME, rat; conditions: rat, heparinized whole blood, heparinized rat blood, 37° C., single phase exponential decay; read-out: stability t1/2 in blood
Method: At the end of each incubation, 20 μL of Nle^1-AngIV (100 μg/mL) was added to each sample as an internal standard. […] All samples were centrifuged at 4° C., 2300× g for 5 min and the supernatants were transferred to clean tubes.
Samples were then separated by HPLC on an Econosphere C18 (100 mm×2.1 mm) from Grace Davison Discovery Science (Deerfield, Ill.). […] The mobile phase consisted of HPLC water (Sigma St. Louis, Mo.) with 0.1% trifluoroacetic or 0.1% heptafluorobutyric acid (Sigma St. Louis, Mo.) and varying concentrations of ACN or methanol. Separation was carried out using a gradient method, at ambient temperature and a flow rate of 0.3 mL/min (see below for more information). Stability half-lives were determined assuming a normal single phase exponential decay using Prism 5 graphical/statistical program (GraphPad, San Diego, Calif.).

scopolamine treated rats = assay: Morris water maze, scopolamine amnesia model; format: in vivo, rat; conditions: for mean latency to find the pedestal, final day of training / mean latency to find the pedestal, fourth day of training / mean latency to find the pedestal, day one of training: icv, scopolamine 70 nmol, Dihexa 300 pmol, Hinge 300 pmol; for mean latency to find the pedestal, final day of training / mean latency to find the pedestal, fourth day of training: vehicle 43.0 s; for mean latency to find the pedestal, day one of training: vehicle 89.3 s
hippocampal neurons [5] = assay: Spinogenesis in mRFP-β-actin transfected dissociated hippocampal neurons; format: cell-based, rat
Method: Hippocampal neurons ([…] cells per square cm) were cultured from P1 Sprague Dawley rats on plates coated with poly-L-lysine from Sigma (St. Louis, Mo.; molecular weight 300,000). Hippocampal neurons were maintained in Neurobasal A media from Invitrogen (Carlsbad, Calif.) supplemented with B27 from Invitrogen, 0.5 mM L-glutamine, and […] cytosine-D-arabinofuranoside from Sigma added at 2 days in vitro. Hippocampal neurons were then cultured a further 3-7 days, at which time they were either transfected or treated with various pharmacological reagents as described in (Wayman, Davare et al. 2008).
Neurons were transfected with mRFP-β-actin on day in vitro 6 (DIV6) using LipofectAMINE™ 2000 (Invitrogen) according to the manufacturer's protocol. This protocol yielded the desired 3-5% transfection efficiency thus enabling the visualization of individual neurons. Higher efficiencies obscured the dendritic arbor of individual neurons. Expression of fluorescently tagged actin allowed clear visualization of dendritic spines, as dendritic spines are enriched in actin. On DIV7 the cells were treated with vehicle (H20) or peptides (as described in the text) added to media. On DIV12 the neurons were fixed (4% paraformaldehyde, 3% sucrose, 60 mM PIPES, 25 mM HEPES, 5 mM EGTA, 1 mM MgCl2, pH 7.4) for 20 min at room temperature and mounted. Slides were dried for at least 20 hours at 4° C. and fluorescent images were obtained with Slidebook 4.2 Digital Microscopy Software driving an Olympus IX81 inverted confocal microscope with a 60× oil immersion lens, NA 1.4 and resolution 0.280 μm Dendritic spine density was measured on primary and secondary dendrites at a distance of at least 150 μm from the soma. Five 50 μm long segments of dendrite from at least 10 neurons per data point were analyzed for each data point reported. Each experiment was repeated at least three times using independent culture preparations. Dendrite length was determined using the National Institutes of Health's Image J 1.41o program (NIH, Bethesda, Md.) and the neurite tracing program Neuron J (Meijering, Jacob et al. 2004) Spines were manually counted.
Hippocampal neurons (2×10^5 cells per square centimeter) were cultured from P1-2 Sprague Dawley rats on plates coated with poly-L-lysine from Sigma (St. Louis, Mo.; molecular weight 300,000). Hippocampal neurons were maintained in Neurobasal A media from Invitrogen (Carlsbad, Calif.) supplemented with B27 from Invitrogen, 0.5 mM L-glutamine, and […] cytosine-D-arabinofuranoside from Sigma added at 2 days in vitro. Hippocampal neurons were then cultured a further 3-7 days, at which time they were either transfected or treated with various pharmacological reagents as described in the text or figure legends.

hippocampal neurons [6] = assay: Whole-cell recordings of mEPSCs in dissociated hippocampal neurons; format: cell-based, rat; parameters: mean mEPSC frequency: unit not given beside the values; conditions: 5 days; Hinge 10^−12 M, HGF 10 ng/ml, Dihexa 10^−12 M, alone or combined; vehicle 5.31±0.35

T1 sequence (P14210 32-728): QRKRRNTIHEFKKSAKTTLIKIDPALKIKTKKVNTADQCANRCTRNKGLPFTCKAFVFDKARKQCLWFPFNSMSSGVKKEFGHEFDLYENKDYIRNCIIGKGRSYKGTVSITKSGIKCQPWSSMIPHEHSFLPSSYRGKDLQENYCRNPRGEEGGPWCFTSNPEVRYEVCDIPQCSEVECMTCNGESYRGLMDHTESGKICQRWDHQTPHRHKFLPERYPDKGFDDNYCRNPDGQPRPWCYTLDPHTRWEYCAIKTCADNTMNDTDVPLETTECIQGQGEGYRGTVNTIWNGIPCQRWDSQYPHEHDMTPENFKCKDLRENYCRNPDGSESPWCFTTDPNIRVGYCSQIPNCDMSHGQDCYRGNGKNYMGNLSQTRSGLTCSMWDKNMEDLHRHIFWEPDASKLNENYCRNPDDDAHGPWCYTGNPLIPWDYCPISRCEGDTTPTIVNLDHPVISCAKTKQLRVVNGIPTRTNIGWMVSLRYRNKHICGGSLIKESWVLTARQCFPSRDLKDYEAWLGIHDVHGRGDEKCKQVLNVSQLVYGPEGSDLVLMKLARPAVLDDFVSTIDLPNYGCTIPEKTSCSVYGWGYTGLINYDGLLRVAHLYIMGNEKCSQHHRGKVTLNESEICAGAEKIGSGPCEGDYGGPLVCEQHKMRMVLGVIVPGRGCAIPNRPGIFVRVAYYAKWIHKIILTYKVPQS

In the case of CCCC[C@@H](N)C(=O)N[C@@H](CCSC)C(=O)N[C@H](C(=O)NCCCCCC(N)=O)[C@@H](C)CC [D-Nle-Met-Ile-NH—(CH2)5—CONH2] (H-[dNle]MI[Ahx]-NH2), the “affinity for HGF (in words)” value (HGF [1]) is reported as “low affinity for HGF”, the “inhibition of HGF dimerization” value (HGF [2]) is reported as “unable to block dimerization at the concentration tested” and the “inhibition of HGF-dependent Met phosphorylation” value (Met) is reported as “no ability to effect on Met activation”. The “inhibition of HGF-dependent Met phosphorylation” value (Met; listed as Met) was “not different than the HGF group” and the “inhibition of HGF-dependent scattering in MDCK cells” value (MDCK cells [3]) was “not different”.

For CCCC[C@@H](N)C(=O)N[C@@H](Cc1c[nH]c2ccccc12)C(=O)N[C@H](C(=O)NCCCCCC(N)=O)[C@@H](C)CC [D-Nle-Trp-Ile-NH—(CH2)5—CONH2] (H-[dNle]WI[Ahx]-NH2), the “affinity for HGF (in words)” value (HGF [1]) was “moderate affinity for HGF”, the “inhibition of HGF dimerization” value (HGF [2]) was “intermediate inhibition of dimerization” and the “inhibition of HGF dimerization” value (HGF [2]; listed as Trp) was “statistically different than the HGF treated group”. For the same compound, the “inhibition of HGF-dependent Met phosphorylation” value (Met) was “intermediate inhibitory activity”, the “inhibition of HGF-dependent MDCK cell proliferation” value (MDCK cells [4]) was “inhibitory activity, albeit less than that observed with the most potent analogs” and the “inhibition of HGF-dependent scattering in MDCK cells” value (MDCK cells [3]) was “different from the HGF alone group but not different from the control group”.

With CCCC[C@H](N)C(=O)N[C@@H](Cc1ccc(O)cc1)C(=O)N[C@H](CN[C@@H](Cc1c[nH]cn1)C(=O)N1CCC[C@H]1C(=O)N[C@@H](Cc1ccccc1)C(=O)O)CC(C)C [Norleual, Nle-Tyr-Leu-Ψ-(CH2—NH2)^3-4-His-Pro-Phe, reference compound] the half-life (Blood stability studies) was < 5 min.

With CN1[C@@H]2C[C@@H](OC(=O)[C@H](CO)c3ccccc3)C[C@H]1[C@@H]1O[C@@H]12 [scopolamine, scopolamine hydrobromide, reference compound] the “mean latency to find the pedestal, final day of training” value (scopolamine treated rats) was 84.8 s, the “mean latency to find the pedestal, fourth day of training” value (scopolamine treated rats) was 102.4 s and the “mean latency to find the pedestal, day one of training” value (scopolamine treated rats) was 114.7 s.

For “DYIRNC (Synthetic hinge peptide) [HGF antagonist peptide representing the dimerization (hinge) domain of HGF; also printed KDYIRN, reference compound]”, the “mean latency to find the pedestal, final day of training” value (scopolamine treated rats) was 46.1 s, the “mean latency to find the pedestal, fourth day of training” value (scopolamine treated rats) was 78.3 s and the “mean latency to find the pedestal, day one of training” value (scopolamine treated rats) was 111.1 s. The “inhibition of spine formation in stimulated neurons” value (hippocampal neurons [5]; neurons stimulated with 10 ng/ml HGF, 10^−12 M Nle1-AngIV or 10^−12 M Dihexa) was “effectively inhibit spine formation”, the “effect of Hinge alone on basal spinogenesis” value (hippocampal neurons [5]; wide range of doses) was “no effect on spinogenesis over a wide range of doses” and the “mean mEPSC frequency” value (hippocampal neurons [6]) was 4.51±0.47. For the same compound, the “inhibition of scattering of MDCK cells by Hinge” value (MDCK cells [3]) was “inhibit scattering of Madin-Darby canine kidney (MDCK) cells”.

In the case of Nle-YIH-amide, the dendritic spine numbers (hippocampal neurons [5]; 10^-8 and 10^-10 M) is reported as “increased spine numbers”.

For [GABA]-Tyr-Ile [GABA-YI], the “time in the target quadrant, day 9 probe trial” value (scopolamine treated rats; analog 1 nmol icv after scopolamine) was “different than all the other treated groups” and the dendritic spine numbers (hippocampal neurons [5]; 10^-8 and 10^-10 M) was “increased spine numbers”.

For acetyl-Nle-YIH, the dendritic spine numbers (hippocampal neurons [5]; 10^-8 and 10^-10 M) was “increased spine numbers” and the dendritic spine numbers (hippocampal neurons [5]; concentrations lower than 10^-10 M) was “increasing spine numbers at even lower concentrations”.
